The assay deals with SARS-CoV-2 strains and variants (wild-type, Delta, Omicron BA.1.1, BA.2.3, BA.4, BA.5). Nature of the assay: Antiviral CPE assay in Vero E6 cells, summary over all tested strains. In kind it is cell-based. To be noted: Severe acute respiratory syndrome coronavirus 2, Vero C1008.

Molecules are shown by their SMILES. Like-named read-outs stand apart in the source and are kept apart here.

By EC50 is commonly meant the concentration that produces a half-maximal response.

With `O=C(O)C[C@@H]1C(=O)O[C@H]2[C@@H]3OC(=O)c4cc(O)c(O)c(O)c4-c4c(cc(O)c(O)c4O)C(=O)OC[C@H]2O[C@@H](OC(=O)c2cc(O)c(O)c(O)c2)[C@@H]3OC(=O)c2cc(O)c(O)c3c2[C@H]1[C@H](O)C(=O)O3` [CHLA, chebulagic acid], the EC50 (read-out: EC50 values against a range of SARS-CoV-2 variants) was below 2000 nM.
For the compound `CC(C)(C)[C@H](NC(=O)C(F)(F)F)C(=O)N1C[C@H]2[C@@H]([C@H]1C(=O)N[C@H](C#N)C[C@@H]1CCNC1=O)C2(C)C` [PF-07321332, reference compound], the half-maximal effective concentration (EC50) (read-out: EC50 for the tested SARS-CoV-2 strains and variants) was around 50 nM.

The values above are taken from publication PMC12648101, “Targeting SARS-CoV-2 main protease for the discovery of a broad-spectrum COVID-19 inhibitor by intensive multi-tiered validation” (Acta Pharmaceutica Sinica. B, 2025).
